Laboratory results from patent US20240132431A1, “METHOD FOR ALKYLATING ACIDIC FUNCTIONAL GROUP” (Chugai Seiyaku Kabushiki Kaisha, priority 2021, published 2024).

Target: T1, Bcl-2 protein (Recombinant Human Bcl-2 Protein) (Homo sapiens, UniProt P10415)
T1 construct: purchased Novus NBP2-34889
Assay: Binding evaluation of mixture library compounds to Bcl-2 using AS-MS (affinity selection mass spectrometry)
Details: AS-MS, mixture of 1200 compounds, Bcl-2, ASMS Ratio(%)=(A−C)/B×100; for ASMS ratio (%) n = 1: replicate n = 1; for ASMS ratio (%) n = 2: replicate n = 2
Experimental: For one well of MICROPLATE, 96-well, PP, V-BOTTOM (Greiner bio-one, 651201), DMSO solutions of 12 mixtures (prepared to approximately 0.58 mM based on calculations from the average molecular weight of each mixture), in each of which 100 compounds are mixed, were each dispensed, and dispensed into a total of 12 wells, where the 12 mixtures are mixAI-B4J-01, mixAI-B1M-01, mixAI-B1K-01, mixAI-B10-01, mixAI-B1A-01, mixAI-B3A-01, mixAI-B21-01, mixAI-B2L-01, mixAI-B2N-01, mixAI-B2A-01, mixAI-B2Q-01, and mixAI-B2R-01 listed in [Table AI-03-B4J-01], [Table AI-03-B1M-01], [Table AI-03-B1K-01], [Table AI-03-B10-01], [Table AI-03-B1A-01], [Table AI-03-B3A-01], [Table AI-03-B2I-01], [Table AI-03-B2L-01], [Table AI-03-B2N-01], [Table AI-03-B2A-01], [Table AI-03-B2Q-01], and [AI-03-B2R-01] shown in Example 6. Using the LABCYTE ECHO® 555 Acoustic Dispensing System (BECKMAN COULTER), 70 nL was collected from each of the 12 wells into one arbitrary well to prepare a sample solution with 1200 compounds in the mixed state (the presence of 1152 compounds had already been identified when prepared in Example 6-5-3). (In the present specification, the mixture collected in this one well is referred to as one library.) Furthermore, a Bcl-2 protein (Novus, NBP2-34889, Recombinant Human Bcl-2 Protein, Lot E60145051) (19.2 μL) that had been prepared in advance to be 20.9 μM using a Tris-HCl buffer (25 mM Tris-HCl pH 7.4, 150 mM NaCl, 0.025% Tween-20, 1 mM DTT) was added to the well in which 1200 compounds (the presence of 1152 compounds had already been identified when prepared in Example 6-5-3) were dispensed (final compound concentration […], final Bcl-2 concentration 20 μM), and the mixture was incubated in the dark at 23° C. for 1 hour. Next, using the 96-well MacroSpin column, P-2 Material (Harvard, 74-5655) that had been swollen, conditioning of the 96-well MacroSpin column was performed three times by centrifugation with 200 μL of an assay buffer (25 mM Tris-HCl pH 7.4, 150 mM NaCl, 0.025% Tween-20, 1 mM DTT), 2000 XG, 4° C., 2 min. Subsequently, 20 μL of the sample after incubation was added to the 96-well MacroSpin column, P-2 Material, that had been conditioned, and SEC treatment was performed by centrifugation at 2000×G for 2 minutes. To the liquid passed from the SEC, 32 μL of a 1:1 mixed solution of acetonitrile and methanol (LC/MS grade, Fujifilm Wako Pure Chemical Corporation) was added, the mixture was centrifuged at 1800×G, 4° C., 5 min, and the supernatant was used as analysis sample ASMS (A), while a sample that had been prepared by the same operations at 1200 compounds/well and to which only the Tris-HCl buffer had been added without the Bcl-2 protein was incubated under the same conditions, no 96-well MacroSpin column treatment was performed, the same organic solvent was added, and the supernatant solution obtained by centrifugation was used as STD (B). Next, a sample that had been prepared by the same operations at 1200 compounds/well and to which only the Tris-HCl buffer had been added without the Bcl-2 protein was incubated under the same conditions, the same 96-well MacroSpin column treatment was performed, the same organic solvent was added, and the supernatant solution obtained by centrifugation was used as BK (C), and measured by reversed phase LC/MS.
Then, analysis of the 1200 compounds was carried out for samples A, B, and C with TraceFinder 5.1 (Thermo Fisher Scientific) and CHANCE Software (in-house), and the ASMS Ratio (%) was calculated according to the following calculation formula.
Calculation formula: ASMS Ratio(%)=(A−C)/B×100

T1 sequence (P10415 whole entry): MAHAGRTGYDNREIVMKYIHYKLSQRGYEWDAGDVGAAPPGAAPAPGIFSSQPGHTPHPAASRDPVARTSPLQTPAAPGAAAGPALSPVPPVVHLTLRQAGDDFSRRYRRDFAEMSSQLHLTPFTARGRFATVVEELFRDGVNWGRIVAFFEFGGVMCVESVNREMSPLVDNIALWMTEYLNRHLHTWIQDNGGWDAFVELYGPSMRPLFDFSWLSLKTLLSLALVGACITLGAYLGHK

Structure (SMILES) | ASMS ratio (%) n = 1 | ASMS ratio (%) n = 2
CCOc1cccc(-c2ccc(C(=O)N3CCN(c4ccc(C(=O)NCC56CC7CC(CC(C7)C5)C6)nn4)CC3)cc2F)c1 [B1A005-01, N-(1-Adamantylmethyl)-6-[4-[4-(3-ethoxyphenyl)-3-fluorobenzoyl]piperazin-1-yl]pyridazine-3-carboxamide] | 7.0% | −10.7%
CCOc1cncc(-c2ccc(C(=O)N3CCN(c4ccc(C(=O)NCC56CC7CC(CC(C7)C5)C6)nn4)CC3)cc2F)c1 [B1A006-01, N-(1-Adamantylmethyl)-6-[4-[4-(5-ethoxypyridin-3-yl)-3-fluorobenzoyl]piperazin-1-yl]pyridazine-3-carboxamide] | 2.4% | 9.1%
CCOc1cccc(C#Cc2ccccc2C(=O)N2CCN(c3ccc(C(=O)NCC45CC6CC(CC(C6)C4)C5)nn3)CC2)c1 [B1A007-01, N-(1-Adamantylmethyl)-6-[4-[2-[2-(3-ethoxyphenyl)ethynyl]benzoyl]piperazin-1-yl]pyridazine-3-carboxamide] | 0.0% | 
CCOc1cncc(C#Cc2ccccc2C(=O)N2CCN(c3ccc(C(=O)NCC45CC6CC(CC(C6)C4)C5)nn3)CC2)c1 [B1A008-01, N-(1-Adamantylmethyl)-6-[4-[2-[2-(5-ethoxypyridin-3-yl)ethynyl]benzoyl]piperazin-1-yl]pyridazine-3-carboxamide] | 3.0% | 0.0%
CCOc1cccc(C#Cc2cncc(C(=O)N3CCN(c4ccc(C(=O)NCC56CC7CC(CC(C7)C5)C6)nn4)CC3)c2)c1 [B1A009-01, N-(1-Adamantylmethyl)-6-[4-[5-[2-(3-ethoxyphenyl)ethynyl]pyridine-3-carbonyl]piperazin-1-yl]pyridazine-3-carboxamide] | 3.0% | 0.0%
CCOc1cncc(C#Cc2cncc(C(=O)N3CCN(c4ccc(C(=O)NCC56CC7CC(CC(C7)C5)C6)nn4)CC3)c2)c1 [B1A010-01, N-(1-Adamantylmethyl)-6-[4-[5-[2-(5-ethoxypyridin-3-yl)ethynyl]pyridine-3-carbonyl]piperazin-1-yl]pyridazine-3-carboxamide] |  | 0.0%
CCOc1cccc(-c2ccccc2CCC(=O)N2CCN(c3ccc(C(=O)NCC45CC6CC(CC(C6)C4)C5)nn3)CC2)c1 [B1A011-01, N-(1-Adamantylmethyl)-6-[4-[3-[2-(3-ethoxyphenyl)phenyl]propanoyl]piperazin-1-yl]pyridazine-3-carboxamide] | 11.2% | −13.2%
CCOc1cncc(-c2ccccc2CCC(=O)N2CCN(c3ccc(C(=O)NCC45CC6CC(CC(C6)C4)C5)nn3)CC2)c1 [B1A012-01, N-(1-Adamantylmethyl)-6-[4-[3-[2-(5-ethoxypyridin-3-yl)phenyl]propanoyl]piperazin-1-yl]pyridazine-3-carboxamide] | 0.0% | 0.0%
CCOc1cccc(-c2ccc(C(=O)N3CCN(c4ccc(C(=O)NCC56CC7CC(CC(C7)C5)C6)nn4)CC3)c3ccccc23)c1 [B1A013-01, N-(1-Adamantylmethyl)-6-[4-[4-(3-ethoxyphenyl)naphthalene-1-carbonyl]piperazin-1-yl]pyridazine-3-carboxamide] | −1.7% | 2.4%
CCOc1cncc(-c2ccc(C(=O)N3CCN(c4ccc(C(=O)NCC56CC7CC(CC(C7)C5)C6)nn4)CC3)c3ccccc23)c1 [B1A014-01, N-(1-Adamantylmethyl)-6-[4-[4-(5-ethoxypyridin-3-yl)naphthalene-1-carbonyl]piperazin-1-yl]pyridazine-3-carboxamide] | 8.1% | 0.0%
CCOc1cccc(-c2cc(C(=O)N3CCN(c4ccc(C(=O)NCC56CC7CC(CC(C7)C5)C6)nn4)CC3)cc(C(C)(C)C)c2)c1 [B1A015-01, N-(1-Adamantylmethyl)-6-[4-[3-tert-butyl-5-(3-ethoxyphenyl)benzoyl]piperazin-1-yl]pyridazine-3-carboxamide] | −0.9% | −20.6%
CCOc1cncc(-c2cc(C(=O)N3CCN(c4ccc(C(=O)NCC56CC7CC(CC(C7)C5)C6)nn4)CC3)cc(C(C)(C)C)c2)c1 [B1A016-01, N-(1-Adamantylmethyl)-6-[4-[3-tert-butyl-5-(5-ethoxypyridin-3-yl)benzoyl]piperazin-1-yl]pyridazine-3-carboxamide] | 12.1% | −4.6%
CCOc1cccc(-c2cc(C(=O)N3CCN(c4ccc(C(=O)NCC56CC7CC(CC(C7)C5)C6)nn4)CC3)cc(C(F)(F)F)c2)c1 [B1A017-01, N-(1-Adamantylmethyl)-6-[4-[3-(3-ethoxyphenyl)-5-(trifluoromethyl)benzoyl]piperazin-1-yl]pyridazine-3-carboxamide] | 5.4% | 5.4%
CCOc1cncc(-c2cc(C(=O)N3CCN(c4ccc(C(=O)NCC56CC7CC(CC(C7)C5)C6)nn4)CC3)cc(C(F)(F)F)c2)c1 [B1A018-01, N-(1-Adamantylmethyl)-6-[4-[3-(5-ethoxypyridin-3-yl)-5-(trifluoromethyl)benzoyl]piperazin-1-yl]pyridazine-3-carboxamide] | −6.5% | 9.9%
CCOc1cccc(C#Cc2cc(C(=O)N3CCN(c4ccc(C(=O)NCC56CC7CC(CC(C7)C5)C6)nn4)CC3)cc(C(F)(F)F)c2)c1 [B1A019-01, N-(1-Adamantylmethyl)-6-[4-[3-[2-(3-ethoxyphenyl)ethynyl]-5-(trifluoromethyl)benzoyl]piperazin-1-yl]pyridazine-3-carboxamide] | −3.9% | −7.5%
CCOc1cncc(C#Cc2cc(C(=O)N3CCN(c4ccc(C(=O)NCC56CC7CC(CC(C7)C5)C6)nn4)CC3)cc(C(F)(F)F)c2)c1 [B1A020-01, N-(1-Adamantylmethyl)-6-[4-[3-[2-(5-ethoxypyridin-3-yl)ethynyl]-5-(trifluoromethyl)benzoyl]piperazin-1-yl]pyridazine-3-carboxamide] | −4.3% | −10.5%
CCOc1cccc(-c2cnn(-c3cc(C(=O)N4CCN(c5ccc(C(=O)NCC67CC8CC(CC(C8)C6)C7)nn5)CC4)cc(C(F)(F)F)c3)c2)c1 [B1A021-01, N-(1-Adamantylmethyl)-6-[4-[3-[4-(3-ethoxyphenyl)pyrazol-1-yl]-5-(trifluoromethyl)benzoyl]piperazin-1-yl]pyridazine-3-carboxamide] | −1.3% | −3.7%
CCOc1cncc(-c2cnn(-c3cc(C(=O)N4CCN(c5ccc(C(=O)NCC67CC8CC(CC(C8)C6)C7)nn5)CC4)cc(C(F)(F)F)c3)c2)c1 [B1A022-01, N-(1-Adamantylmethyl)-6-[4-[3-[4-(5-ethoxypyridin-3-yl)pyrazol-1-yl]-5-(trifluoromethyl)benzoyl]piperazin-1-yl]pyridazine-3-carboxamide] | 8.0% | 7.7%
CCOc1cccc(-c2csc(C(=O)N3CCN(c4ccc(C(=O)NCC56CC7CC(CC(C7)C5)C6)cc4)CC3)c2)c1 [B1A023-01, N-(1-Adamantylmethyl)-4-[4-[4-(3-ethoxyphenyl)thiophene-2-carbonyl]piperazin-1-yl]benzamide] | 4.0% | 0.8%
